The values that follow are results of earlier work, collected in the CATMoS acute toxicity set (Mansouri et al. 2021).

Where “and” joins values, the source holds several entries; their conditions need not be identical. Identical values can stand only once.

The data set is described as follows: rat acute oral toxicity. The following applies: in vivo.
As for `CC(Cc1ccc2c(c1)OCO2)NCC(O)c1ccc(O)c(O)c1` (stereo not given), the LD50 is 865 mg/kg. With `CCN(CC)CCNc1c(Cl)cc(C)c2ncccc12`, the LD50 was 900 mg/kg. With `COc1ccc(N2CCN(CCCN(C)C)CC2)cc1`, the LD50 was 787 mg/kg. As for `CS(=O)(=O)F`, the 50% lethal dose (LD50) was 2 mg/kg. In the case of `CCCCSC(C)C1(CC)C(=O)N=C(O)NC1=O` (stereo not given), the LD50 was 582 mg/kg. `CC(=O)O[C@]1(C)CC[C@@]23C[C@@H]1C(C)(C)[C@@H]2CC[C@H]3C`: the 50% lethal dose (LD50) is 44800 mg/kg.

For the compound `O=S(=O)(c1ccc(Cl)cc1)c1cc(Cl)c(Cl)cc1Cl`, the LD50 is 566 mg/kg. For the compound `C=CCSCC1(C(C)CCC)C(=O)N=C(O)NC1=O` (stereo not given), the LD50 was 702 mg/kg. `CN(C)CCCCCNc1c2ccccc2nc2cccc([N+](=O)[O-])c12`: the LD50 is 63.3 mg/kg. With `CCCn1c(=O)[nH]c(=O)c2[nH]cnc21`, the median lethal dose (LD50) is 481 mg/kg. For `CC(C)OP(=S)(OC(C)C)SCn1nc(-c2ccccc2)ccc1=O`, the LD50 was 25000 mg/kg. For the compound `CC(C)N(CCC(C(N)=O)(c1ccccc1)c1ccccn1)C(C)C` (stereo not given), the median lethal dose (LD50) is 880 mg/kg and 333 mg/kg. As for `CCCC=C(CC)C(=O)O`, the 50% lethal dose (LD50) is 5660 mg/kg.

In the case of `COC(=O)c1cccc(C)c1O`, the 50% lethal dose (LD50) is 3840 mg/kg. `O=C(CS(=O)Cc1ccco1)NC/C=C\COc1cc(CN2CCCCC2)ccn1` (stereo not given): the median lethal dose (LD50) is 1250 mg/kg. As to `CN1[C@@H]2CCC[C@H]1C[C@@H](NC(=O)c1nn(C)c3ccccc13)C2`, the LD50 was 350 mg/kg. Consider `CCCOC/C(=N\c1ccc(Cl)cc1C(F)(F)F)n1ccnc1`, for which the LD50 is 715 mg/kg. `O=[N+]([O-])c1ccc(F)cc1F`: the 50% lethal dose (LD50) was 200 mg/kg. As for `CC1CC=NN1C(=N)N=C(N)N` (stereo not given), the 50% lethal dose (LD50) was 4350 mg/kg. Turning to `COc1ccc2c(c1)c(CC(=O)OCOC(=O)c1cccc(C)c1)c(C)n2C(=O)c1ccc(Cl)cc1`, the 50% lethal dose (LD50) is 106 mg/kg.

Take `FC(F)(F)c1nc2c(Br)ccc(Br)c2[nH]1`: the 50% lethal dose (LD50) was 18 mg/kg. In the case of `CC(=O)CCC=C(C)C`, the LD50 is 3500 mg/kg.

Turning to `CC(Cl)COP(=O)(OCC(C)Cl)OCC(C)Cl` (stereo not given), the median lethal dose (LD50) is 1020 mg/kg. In the case of `COc1ccc2c(-c3ccc(OCC(O)CNC(C)C)cc3)c(-c3ccccc3)c(=O)oc2c1` (stereo not given), the LD50 was 1000 mg/kg. With `ClCCO[SiH](OCCCl)OCCCl`, the LD50 is 190 mg/kg. On to `CCC1(CC)C(=O)C=CN(CN2CCOCC2)C1=O`, for which the LD50 was 1950 mg/kg. In the case of `CCCCCOC(C[n+]1ccccc1)c1ccc(C(C)C)cc1` (stereo not given), the LD50 is 250 mg/kg. Take `C=CC(=O)OCCN=C=O`: the LD50 was 200 mg/kg. As for `CN1C(C(=O)Nc2nccs2)=C(O)c2ccccc2S1(=O)=O`, the LD50 was 136 mg/kg. Turning to `CCCc1ccc(C=O)cc1`, the LD50 is 1600 mg/kg. Turning to `CCN1CCCC(Nc2cc(C)nc(N=C(N)Nc3ccc(Cl)c(Cl)c3)n2)C1` (stereo not given), the median lethal dose (LD50) was 1040 mg/kg. In the case of `N#Cc1ccc(C2CCCc3cncn32)cc1` (stereo not given), the 50% lethal dose (LD50) is 200 mg/kg.

Take `Cc1[nH]c2ccccc2c1C=CC1=[N+](C)c2ccccc2C1(C)C`: the LD50 was 2450 mg/kg. Consider `Cc1c(O)cccc1O`, for which the median lethal dose (LD50) is 200 mg/kg.

As to `Cc1cccc(C)c1NC1=NCCCS1`, the LD50 was 130 mg/kg. As for `CCNC(=S)OC(C)C`, the 50% lethal dose (LD50) is 568 mg/kg. `O=C(CCCN1CCN(C(=O)OC2CCCCC2)CC1)c1ccc(F)cc1`: the LD50 is 1080 mg/kg. Regarding `O=C1C=CC(=O)N1c1c(F)c(F)c(F)c(N2C(=O)C=CC2=O)c1F`, the 50% lethal dose (LD50) was 2100 mg/kg. On to `CCOCCOc1ccc(Cl)cc1Cl`, for which the LD50 is 1410 mg/kg. Regarding `COc1cc(C)c2c(Oc3cccc(C(F)(F)F)c3)c(OC)cc(NC(C)CCCN)c2n1` (stereo not given), the 50% lethal dose (LD50) was 416 mg/kg. Take `O=[N+]([O-])c1cc(Cl)c2nc(C(F)(F)F)[nH]c2c1`: the LD50 is 9.87 mg/kg. As to `FC(F)(F)c1nc2c(Cl)cc(Br)cc2[nH]1`, the 50% lethal dose (LD50) was 6.4 mg/kg.

On to `Cc1ccccc1C#N`, for which the median lethal dose (LD50) was 3200 mg/kg. Regarding `CCOC(=O)Nc1ccc2c(c1)N(C(=O)CCN1CCOCC1)c1ccccc1CC2`, the median lethal dose (LD50) is 623 mg/kg. For `O=C(O)CNC(=O)c1ccc(Cl)cc1`, the LD50 was 2230 mg/kg.

As to `O=NN(O)c1ccccc1`, the LD50 was 199 mg/kg and 490 mg/kg. `CCO[Si](CS)(OCC)OCC`: the LD50 was 2550 mg/kg. Take `CC(=O)c1cccc([N+](=O)[O-])c1`: the 50% lethal dose (LD50) is 3250 mg/kg.

On to `COC(C=Cc1ccccc1)OC`, for which the 50% lethal dose (LD50) was 3700 mg/kg.

As for `CCCOc1ccc(C=CC(=S)OCC)cc1OC`, the 50% lethal dose (LD50) is 1010 mg/kg. With `CC(C)(O)C(=O)c1ccc(OCCO)cc1`, the LD50 was 4080 mg/kg. With `O=C(CF)Nc1ccc(Br)cc1`, the LD50 was 29 mg/kg. Consider `COC(=O)COc1ccc2ccccc2c1`, for which the LD50 is 2800 mg/kg. Take `CC(C)C(CCN(C)C)(C(N)=O)c1cccc2ccccc12` (stereo not given): the LD50 is 1030 mg/kg. For `CC(=O)Nc1ccc(S(=O)(=O)Nc2cc(C)on2)cc1`, the LD50 is 8400 mg/kg.

As for `CC(C)=CC=O`, the LD50 is 690 mg/kg. With `CC(COc1ccc(C(C)(C)C)cc1)OS(=O)OCCCl` (stereo not given), the LD50 is 3900 mg/kg. On to `COc1ccc2c(c1)N(CCCN(C)C)c1ccccc1S2`, for which the LD50 was 730 mg/kg. Turning to `CCCCCCCCCCCCCCCCCOCC`, the median lethal dose (LD50) was 1260 mg/kg. In the case of `O=C1CCCCC1(CCN1CCCCCC1)C(=O)OCc1ccccc1` (stereo not given), the LD50 is 450 mg/kg.

A word on the LD50: it is the dose expected to kill half of the subjects tested.
